Assay results taken from BindingDB's records for PubMed 31761384 (China Pharmaceutical University, 2020).
Bridge positions count the residues as written; N and C are the ends. Peptide text beside a SMILES is read from it.

Assay: Inhibition of human PD-1 expressed in rat PBMCs/human PD-L1 expressed in MDA-MB-231 cells protein-protein interaction assessed as increase in PBMCs proliferation

EC50: 0.41 nM
Structure (SMILES): CC[C@H](C)[C@@H]1NC(=O)[C@H](CC(C)C)NC(=O)[C@H](Cc2ccccc2)NC(=O)CSC[C@@H](C(=O)NCC(N)=O)NC(=O)[C@H](CCCNC(=N)N)NC(=O)[C@H](Cc2ccccc2)NC(=O)[C@H](C(C)C)NC(=O)[C@H](CCCNC(=N)N)NC(=O)[C@H](CC(=O)O)NC(=O)[C@H](CCCNC(=N)N)NC(=O)[C@H]([C@@H](C)CC)NC(=O)[C@H](C(C)C)NC1=O ({CH2CO}-FLIVIRDRVFRCG-NH2; thioether N-12)
